# Results as given in patent US20130266528A1, “SKIN LIGHTENING COMPOSITION” (priority 2010, published 2013).
# Structures can show the parent of a compound that is named as a salt.
# How the values were obtained:
# HaCaT keratinocyte cells [1] = test: Keratinocyte differentiation (acridine orange staining); format: cell-based; conditions: 24 hrs, average of minimum three replicates
# Description: Several dicarboxylic acids were tested in an in-vitro assay viz. keratinocyte differentiation which is a well known pathway leading to skin lightening. The assay protocol is given below: 5×10^4 HaCaT keratinocyte cells/well were grown in 24 well plates for 24 hours. Cells were cultured with actives for 24 hrs. Cells were then washed with Phosphated buffer solution (PBS) and stained with 5 μg/ml acridine orange. Cells were immediately viewed using an epi-fluorescent microscope (Olympus BX 50), at 20× magnification, using appropriate excitation and barrier filters, to simultaneously view red and green fluorescence (excitation: 460 nm and emission>515 nm). The entire plate was scanned and the percentage of differentiated keratinocytes (cells with red fluorescence evenly distributed within the cytoplasm) was estimated. Data is represented as % control.
# HaCaT keratinocyte cells [2] = test: Highest concentration above which the active exhibited cytotoxicity; format: cell-based; conditions: keratinocyte differentiation experiment of table 2
# B16 melanocytes = conditions: 1 mM active, 24 hrs, average of minimum three replicates
# Description: B16 melanocytes were cultured in 60 mm^2 petriplates for 2-3 days or until they reached ˜70% confluency and then actives were added and incubated for 24 hrs. Cells were harvested and protein content was estimated using Bradford method. The cells were then solubilized in 0.1N NaOH and melanin was estimated. Data are then calculated as mg melanin/mg protein and represented as % control. Decreased numbers indicate inhibition of melanin synthesis by the actives.
Structure (SMILES),Conc. of active = highest possible concentration above which the active exhibited cytotoxicity (HaCaT keratinocyte cells [2]),"% Keratinocyte differentiation, average (HaCaT keratinocyte cells [1]; 10 mM active)",further results
O=C(O)CCCCCCCC(=O)O [azeleic acid],5500 µM,–,"% Keratinocyte differentiation, average (HaCaT keratinocyte cells [1]; 5.5 mM active): 175 % control"
O=C(O)/C=C/C(=O)O [disodium fumarate],10000 µM,183 % control,–
O=C(O)CCCCCCCCC(=O)O [sebacic acid],5000 µM,–,"% Keratinocyte differentiation, average (HaCaT keratinocyte cells [1]; 5 mM active): 130 % control"
CCCC(=O)[O-].[Na+] [sodium butyrate],1000 µM,–,"% Keratinocyte differentiation, average (HaCaT keratinocyte cells [1]; 1 mM active): 174 % control; Melanin (mg melanin/mg protein), average (B16 melanocytes): 92 % control"
O=C([O-])CCC(=O)[O-].[Na+].[Na+] [sodium succinate],6000 µM,–,"% Keratinocyte differentiation, average (HaCaT keratinocyte cells [1]; 6 mM active): 155 % control"
O=C([O-])C(O)C(O)C(=O)[O-].[Na+].[Na+] (stereo not shown) [sodium tartarate],10000 µM,165 % control,–
